Measurements published in patent US20210024483A1, “HETEROCYLCOALKENYL DERIVATIVES USEFUL AS AGONISTS OF THE GPR120 AND / OR GPR40” (Janssen Pharmaceutica NV, priority 2018, published 2021).

Tests used:
GPR40 = GPR40 (UniProt O14842); assay: GPR40 Calcium Flux Assay; format: cell-based; conditions: transfected HEK293 cells stably expressing human or rat GPR40; species not given
Method: Biological Example 3: In Vitro Assay
Compounds were tested in a calcium flux assay using transfected HEK293 cells stably expressing either human GPR40 or rat GPR40. Human GPR40 expressing cells were cultured in DMEM-High Glucose media supplemented with 10% fetal bovine serum, 1×L-Glutamine, 1× Penicillin/Streptomycin and 500 μg/mL G418. Rat GPR40 expressing cells were cultured in DMEM-High Glucose media supplemented with 10% fetal bovine serum and 1 μg/mL puromycin. Cells were plated into poly-D-lysine coated 384-well plates and cultured overnight in a 37° C. humidified tissue culture incubator under 5% CO2/90% O2 atmosphere.
On the day of the experiment, the culture media was replaced with assay buffer (HBSS, 20 mM HEPES, 0.1% BSA) and the cells incubated at 37° C. for 1 h. Calcium-sensitive fluorescent dye (Fluo 8 No-Wash Calcium Dye, ABD Bioquest) was then added and the cells incubated for another 30 min at 37° C. followed by 15 min at room temperature while protected from the light. The cell plate and a plate of diluted compounds of Formula (I) were loaded into a fluorescent plate reader that added compounds onto the cells while measuring the fluorescence intensity of each well. The plate reader recorded fluorescence intensity at 1 second intervals for 8 min and provided the data for analysis in an Excel format. EC50 values were calculated using Prism (GraphPad) software.

[1] = target: T1, short form of the GPR120 receptor (Homo sapiens, UniProt Q5NUL3); assay: Human GPR120 DiscoveRx PathHunter Beta-Arrestin Assay, Procedure B; format: cell-based; conditions: PathHunter CHO-K1 GPR120S cells, 5000 cells/well
T1 construct: host or cells: PathHunter CHO-K1 GPR120S beta-Arrestin Cell Line
T1 sequence (Q5NUL3 1-361): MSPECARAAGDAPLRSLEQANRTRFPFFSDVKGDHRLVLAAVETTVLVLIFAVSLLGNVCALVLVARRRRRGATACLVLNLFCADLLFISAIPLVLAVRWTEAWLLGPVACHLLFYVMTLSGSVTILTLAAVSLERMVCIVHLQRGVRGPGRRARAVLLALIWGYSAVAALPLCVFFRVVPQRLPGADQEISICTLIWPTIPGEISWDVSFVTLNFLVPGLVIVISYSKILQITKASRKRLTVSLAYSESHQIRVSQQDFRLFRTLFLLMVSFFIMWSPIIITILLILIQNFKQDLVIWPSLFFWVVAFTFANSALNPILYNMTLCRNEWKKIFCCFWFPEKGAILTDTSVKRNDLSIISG
Description: Human GPR120 DiscoveRx PathHunter® Beta-Arrestin Assay
The binding of an agonist (medium/long chain fatty acids or small molecule agonists) to the G-protein-coupled receptor GPR120 activates phospholipase C, leading to release of intracellular Ca^+2 through the generation of inositol 1,4,5-trisphosphate (InsP3 or IP3). GPR120 activation can also trigger intracellular signaling via recruitment of Beta-Arrestin. In the present method, agonist-induced activation of the human GPR120 receptor is monitored through the use of PathHunter® CHO-K1 GPR120 Beta-Arrestin Cell Line engineered by DiscoveRx, as detailed below. The cell lines were designed to co-express both the ProLink/Enzyme Donor (PK)-tagged GPCR and the Enzyme […] (EA)-tagged Beta-Arrestin fusion proteins. Upon GPR120 receptor stimulation/activation, the EA-tagged Beta-Arrestin portion is translocated to the tagged receptor, where the two enzyme fragments are brought within close proximity. Under these conditions, these fragments can interact and form an active Beta-gal enzyme complex through Enzyme Fragment Complementation (EFC). This active Beta-gal complex can enzymatically hydrolyse the substrate to produce a detectable light signal; therefore, activation as a function of agonist concentration can be expressed as an EC50 value to determine relative compound activities. This in vitro assay therefore serves to assess compound agonist activity of the GPR120.
In Procedure β-arrestin B the cells used were PathHunter® CHO-K1 GPR120S β-Arrestin Cell Line, expressing the short form of the GPR120 receptor (Accession #[…]), with 5000 cells/well.
The selected CHO-K1 GPR120 β-Arrestin cells were cultured in Ham's F12 media supplemented with 10% fetal bovine serum (FBS), 1% Glutamine, 1× p/s, 800 μg/mL G418 and 300 μg/mL Hygromycin B (for selection). Cell stocks were maintained and grown in a sub-confluent state using standard cell culture procedures. The day before the experiment, the cells were harvested with non-enzymatic cell dissociation buffer and re-suspended in complete growth media at the desired concentration. A Corning 384-plate was then seeded with the proper number of cells in a volume of 25 μL, per well. The seeded plates were incubated overnight at 37° C.
On the day of the experiment, the Assay Buffer containing (a) HBSS with Ca^++ and Mg^++, (b) 20 mM HEPES, and (c) 0.1% BSA stabilizer (pH 7.4) was prepared. The growth medium was gently removed from the cell plates and 20 μL of Assay Buffer added to each well. The plate was then incubated at 37° C. for 60 min. Test compounds were serially diluted in Assay Buffer to desired concentrations (more particularly to one or more of the following μM concentrations: 25, 12.5, 6.25, 3.12, 1.56, 0.78, 0.39, 0.19, 0.10, 0.05, 0.02, 0.01). Five μL of compound dilution was then added to each well and the plate incubated at 37° C. for 90 min. The detection reagents were prepared according to the manufacture's instruction. Twelve μL of the detection reagents were added to each well and the plate incubated at room temperature for 60 min.
The plates were read on an EnVision instrument, using Protocol name: Luminescence, Plate type: 384 Costar, Measurement height: 3 mm, Measurement time: 1 s, Aperture: 384 Plate aperture. The % Activity relative to the positive control was calculated using the following equation:
The % Activity values were plotted versus the concentration of test compound and fitted to a sigmoidal dose-response curve with a Hill slope=1 (fixed value) using nonlinear regression with GraphPad Prism 5.0 to calculate the EC50 values. The Fitting Equation was: Y=Bottom+(Top−Bottom)/(1+10^((Log EC50−X)*HillSlope)), where X is the log of the concentration and Y is the response.

EC50 (GPR40): > 10000 nM | EC50 [1]: 243 nM
SMILES: Cc1c(CCC(=O)O)ccc(OCC2=C(c3ccc(Cl)cc3)COCC2)c1C [ID No. 745, 3-[4-[[5-(4-chlorophenyl)-3,6-dihydro-2H-pyran-4-yl]methoxy]-2,3-dimethyl-phenyl]propanoic acid]
